# Target: T1, trypsin-activated recombinant human renin (Homo sapiens, UniProt P00797)
# T1 sequence (P00797 67-406): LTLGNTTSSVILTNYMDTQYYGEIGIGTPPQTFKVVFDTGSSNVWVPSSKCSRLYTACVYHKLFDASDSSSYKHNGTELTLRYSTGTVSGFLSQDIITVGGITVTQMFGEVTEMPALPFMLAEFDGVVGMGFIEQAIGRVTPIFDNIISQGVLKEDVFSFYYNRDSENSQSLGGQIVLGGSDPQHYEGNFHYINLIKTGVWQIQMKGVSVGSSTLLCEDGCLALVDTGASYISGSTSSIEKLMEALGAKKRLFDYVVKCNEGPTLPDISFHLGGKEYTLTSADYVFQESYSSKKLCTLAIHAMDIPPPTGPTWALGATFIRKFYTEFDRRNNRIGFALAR
# Test: Renin fluorescence assay (internally quenched peptide substrate)
# Format: biochemical
# Details: compounds I*
# Protocol: The sequence of this peptide corresponds to the sequence of human angiotensinogen. The following test protocol can be used. All reactions are carried out in a flat bottom white opaque microtiter plate. A 4 μL aliquot of 400 μM renin substrate (DABCYL-γ-[…]) in 192 μL assay buffer (50 mM BES, 150 mM NaCl, 0.25 mg/mL bovine serum albumin, pH7.0) is added to 4 μL of test compound in DMSO at various concentrations ranging from 10 μM to 1 nM final concentrations. Next, 100 μL of trypsin-activated recombinant human renin (final enzyme concentration of 0.2-2 nM) in assay buffer is added, and the solution is mixed by pipetting. The increase in fluorescence at 495 nm (excitation at 340 nm) is measured for 60-360 minutes at rt using a Perkin-Elmer Fusion microplate reader. The slope of a linear portion of the plot of fluorescence-increase as a function of time is then determined, and the rate is used for calculating percent inhibition in relation to uninhibited control. […] (Wang G. T. et al. Anal. Biochem. 1993, 210, 351; Nakamura, N. et al. J. Biochem. (Tokyo) 1991, 109, 741; Murakami, K. et al. Anal Biochem. 1981, 110, 232).
row,Structure (SMILES),IC50 [nM]
1,"CNC[C@H](CC1CCCCCC1)NC(=O)N1CCC[C@@H]([C@@H](OCCNC(=O)OC)c2cccc(Cl)c2)C1 [I*-84a, methyl 2-((R)-(3-chlorophenyl)((R)-1-((S)-1-cycloheptyl-3-(methylamino)propan-2-ylcarbamoyl)piperidin-3-yl)methoxy)ethylcarbamate]",< 1
2,"COC(=O)NCCO[C@@H](c1cc(F)cc(Cl)c1)[C@@H]1CCCN(C(=O)NC[C@@H](N)C[C@H]2CCCCOC2)C1 [I*-122a, methyl 2-((R)-((R)-1-((S)-2-amino-3-((R)-oxepan-3-yl)propylcarbamoyl)piperidin-3-yl)(3-chloro-5-fluorophenyl)methoxy)ethylcarbamate]",< 10
3,"CC[C@@H](N)[C@H](CC1CCCCC1)NC(=O)N1CCC[C@@H]([C@@H](OCCNC(=O)OC)c2cccc(Cl)c2)C1 [I*-83a, methyl 2-((R)-((R)-1-((2S,3R)-3-amino-1-cyclohexylpentan-2-ylcarbamoyl)piperidin-3-yl)(3-chlorophenyl)methoxy)ethylcarbamate]",< 1
4,"CNC[C@H](CC1CCCCC1)NC(=O)N1CCC[C@@H]([C@@H](OCCNC(=O)OC)c2cccs2)C1 [I*-9a, methyl 2-((R)-((R)-1-((S)-1-cyclohexyl-3-(methylamino)propan-2-ylcarbamoyl)piperidin-3-yl)(thiophen-2-yl)methoxy)ethylcarbamate]",< 1
5,"CNC[C@H](CC1CCCCC1)NC(=O)N1CCC[C@@H]([C@H](CCCNC(=O)OC)c2cccc(F)c2)C1 [I*-22a, methyl (S)-4-((S)-1-((S)-1-cyclohexyl-3-(methylamino)propan-2-ylcarbamoyl)piperidin-3-yl)-4-(3-fluorophenyl)butylcarbamate]",> 50
6,"CNC[C@H](CC1CCOCC1)NC(=O)N1CCC[C@@H]([C@@H](OCCNC(=O)OC)c2cccc(C)c2)C1 [I*-20a, methyl 2-((R)-((R)-1-((S)-1-(methylamino)-3-(tetrahydro-2H-pyran-4-yl)propan-2-ylcarbamoyl)piperidin-3-yl)(m-tolyl)methoxy)ethylcarbamate]",< 50
7,"CNC[C@H](CC1CCCCC1)NC(=O)N1CCC[C@@H]([C@@H](OCCNC(=O)OC)c2cc(F)ccc2F)C1 [I*-63a, methyl 2-((R)-((R)-1-((S)-1-cyclohexyl-3-(methylamino)propan-2-ylcarbamoyl)piperidin-3-yl)(2,5-difluorophenyl)methoxy)ethylcarbamate]",< 1
8,"CCNC[C@H](CC1CCCCC1)NC(=O)N1CCC[C@@H]([C@@H](OCCNC(=O)OC)c2cccc(F)c2)C1 [I*-41a, methyl 2-((R)-((R)-1-((S)-1-cyclohexyl-3-(ethylamino)propan-2-ylcarbamoyl)piperidin-3-yl)(3-fluorophenyl)methoxy)ethylcarbamate]",< 10
9,"COC(=O)NCCO[C@@H](c1cccc(Cl)c1)[C@@H]1CCCN(C(=O)N[C@@H]2CNCC[C@H]2CC2CCC2)C1 (relative stereo) [I*-44a, methyl 2-((R)-(3-chlorophenyl)((R)-1-((3S*,4R*)-4-(cyclobutylmethyl)piperidin-3-ylcarbamoyl)piperidin-3-yl)methoxy)ethylcarbamate]",< 10
10,"CNC[C@H](CC1CCOCC1)NC(=O)N1CCCC([C@@H](OCCNC(=O)OC)c2c(C)ccc(F)c2F)C1 (stereo partly drawn) [I*-115a, methyl 2-((R)-(2,3-difluoro-6-methylphenyl)(1-((S)-1-(methylamino)-3-(tetrahydro-2H-pyran-4-yl)propan-2-ylcarbamoyl)piperidin-3-yl)methoxy)ethylcarbamate]",< 10
11,"CNC[C@H](CC1CCCCC1)NC(=O)N1CCC[C@@H]([C@@H](OCCNC(=O)OC)c2ccc(F)c(F)c2)C1 [I*-65a, methyl 2-((R)-((R)-1-((S)-1-cyclohexyl-3-(methylamino)propan-2-ylcarbamoyl)piperidin-3-yl)(3,4-difluorophenyl)methoxy)ethylcarbamate]",< 10
12,"CNC[C@H](CN1CCCCC1=O)NC(=O)N1CCC[C@@H]([C@@H](OCCNC(=O)OC)c2cccc(Cl)c2)C1 [I*-93a, methyl 2-((R)-(3-chlorophenyl)((R)-1-((R)-1-(methylamino)-3-(2-oxopiperidin-1-yl)propan-2-yl-carbamoyl)piperidin-3-yl)methoxy)ethylcarbamate]",> 50
13,"CCC(C)(C)C[C@@H](CNC)NC(=O)N1CCC[C@@H]([C@@H](OCCNC(=O)OC)c2cccc(F)c2)C1 [I*-7a, methyl 2-((R)-((R)-1-((S)-4,4-dimethyl-1-(methylamino)hexan-2-ylcarbamoyl)piperidin-3-yl)(3-fluorophenyl)methoxy)ethylcarbamate]",< 10
14,"CNC[C@H](CC1CCCC1)NC(=O)N1CCC[C@@H]([C@@H](OCCNC(=O)OC)c2cccc(Cl)c2)C1 [I*-29a, methyl 2-((R)-(3-chlorophenyl)((R)-1-((S)-1-cyclopentyl-3-(methylamino)propan-2-ylcarbamoyl)piperidin-3-yl)methoxy)ethylcarbamate]",< 1

# Other lines, results leading:
row,IC50 [nM],Structure (SMILES)
1,< 10,"CNC[C@@H](NC(=O)N1CCC[C@@H]([C@@H](OCCNC(=O)OC)c2cccc(Cl)c2F)C1)[C@@H](O)C1CCCCC1 [I*-138a, methyl 2-((R)-(3-chloro-2-fluorophenyl)((R)-1-((1S,2R)-1-cyclohexyl-1-hydroxy-3-(methylamino)propan-2-ylcarbamoyl)piperidin-3-yl)methoxy)ethylcarbamate]"
2,> 50,"CNC[C@H](C[C@H]1C[C@@H](C)O[C@@H](C)C1)NC(=O)N1CCC[C@@H]([C@@H](OCCNC(=O)OC)c2cccc(F)c2)C1 [I*-77a, methyl 2-((R)-((R)-1-((S)-1-((2S,4r,6R)-2,6-dimethyl-tetrahydro-2H-pyran-4-yl)-3-(methylamino)propan-2-ylcarbamoyl)piperidin-3-yl)(3-fluorophenyl)methoxy)ethylcarbamate]"
3,< 20,"CNC[C@H](C[C@H]1CCC(C)(C)OC1)NC(=O)N1CCC[C@@H]([C@@H](OCCNC(=O)OC)c2cccc(F)c2)C1 [I*-154a, methyl 2-((R)-(3-fluorophenyl)((R)-1-((S)-1-((R)-6,6-dimethyl-tetrahydro-2H-pyran-3-yl)-3-(methylamino)propan-2-ylcarbamoyl)piperidin-3-yl)methoxy)ethylcarbamate]"
4,< 10,"CCNC(=O)CO[C@@H](c1cccc(Cl)c1)[C@@H]1CCCN(C(=O)N[C@H](CNC)C[C@H]2CCCCOC2)C1 [I*-61a, (R)-3-((R)-(3-chlorophenyl)(2-(ethylamino)-2-oxoethoxy)methyl)-N-((2S)-1-(methylamino)-3-((R)-oxepan-3-yl)propan-2-yl)piperidine-1-carboxamide]"
5,< 50,"CNC[C@H](CC1CCOCC1)NC(=O)N1CCC[C@@H]([C@@H](OCCNC(=O)OC)c2cc(C)cc(C)c2)C1 [I*-36a, methyl 2-((R)-(3,5-dimethylphenyl)((R)-1-((S)-1-(methylamino)-3-(tetrahydro-2H-pyran-4-yl)propan-2-ylcarbamoyl)piperidin-3-yl)methoxy)ethylcarbamate]"
6,< 1,"COC(=O)NCCO[C@@H](c1cccc(F)c1)[C@@H]1CCCN(C(=O)N[C@H](CN)CC2CCCCC2)C1 [I*-4a, methyl 2-((R)-((R)-1-((S)-1-amino-3-cyclohexylpropan-2-ylcarbamoyl)piperidin-3-yl)(3-fluorophenyl)methoxy)ethylcarbamate]"

# Reference: patent US8487108B2, “Piperidinyl carbamate intermediates for the synthesis of aspartic protease inhibitors” (Vitae Pharmaceuticals, Inc., priority 2005, dated 2013)
